Measurements published in patent publication US11312727B1, “Macrocyclic flu endonuclease inhibitors” (Janssen BioPharma, Inc., priority 2018, dated 2022).

Experiments:
[1] = tested on: Influenza strain A549 A/WSN/33 (H1N1); experiment: microbe, parasite or virus in culture; assay type: cell-based; settings: Influenza A virus, A549, 20 h, A549 cells, influenza A/WSN/33 (H1N1), 20 hours incubation; read-out: A549_A(H1N1) EC50
in vitro = settings: human, CC50, uninfected A549 cells, CellTiter-Glo

Row | Structure (SMILES) | EC50 [1] | CC50 (in vitro)
1 | O=C1c2c(O)c(=O)ccn2N2CN1CC/C=C\COc1cccc3c1[C@@H]2c1ccccc1SC3 (single isomer, unassigned) [Compound 37A, (1*R,13Z)-7-hydroxy-16-oxa-23-thia-2,3,10-triazahexacyclo[15.12.1.12,10.03,8.021,30.024,29]hentriaconta-4,7,13,17,19,21(30),24(29),25,27-nonaene-6,9-dione] | 12.2 µM | > 2 µM
2 | O=C1c2c(O)c(=O)ccn2N2CN1C/C=C\COc1ccccc1[C@@H]2c1cccc(F)c1 (single isomer, unassigned) [Compound 63B, (18*S,Z)-18-(3-fluorophenyl)-12-hydroxy-6,9-dihydro-18H-10,17-methanobenzo[b]pyrido[1,2-f][1]oxa[5,6,9]triazacyclotridecine-11,13-dione] | 0.013 µM | > 2 µM
3 | O=C1c2c(O)c(=O)ccn2N2CN1C[C@H]1C[C@@H]1COc1cccc3c1[C@H]2c1ccccc1SC3 [Compound 87BA, (1aS,11bS,20aS)-17-hydroxy-1a,2,6,11b,20,20a-hexahydro-1H-5,4-(epiprop[1]en[1]yl[3]ylidene)-12,19-methanobenzo[6,7]thiepino[4,5-c]cyclopropa[k]pyrido[1,2-f][1]oxa[5,6,9]triazacyclotridecine-16,18-dione] | 0.004 µM | > 0.2 µM
4 | O=C1c2c(O)c(=O)ccn2N2CN1C[C@H]1C[C@@H]1COc1c(F)cccc1[C@@H]2c1ccccc1 (single isomer, unassigned) [Compound 125BB, (1a*S,8*S,17a*S)-4-fluoro-14-hydroxy-8-phenyl-1a,2,17,17a-tetrahydro-1H,8H-9,16-methanobenzo[b]cyclopropa[k]pyrido[1,2-f][1]oxa[5,6,9]triazacyclotridecine-13,15-dione] | > 0.1 µM | > 0.2 µM
5 | CC[C@@H]1/C=C/COc2c(ccc(Cl)c2F)[C@H](c2ccccc2)N2CN1C(=O)c1c(O)c(=O)ccn12 (single isomer, unassigned) [Compound 170AB, (9*R,18*S,E)-3-chloro-9-ethyl-4-fluoro-12-hydroxy-18-phenyl-6,9-dihydro-18H-10,17-methanobenzo[b]pyrido[1,2-f][1]oxa[5,6,9]triazacyclotridecine-11,13-dione] | > 0.05 µM | > 0.1 µM
6 | O=C1c2c(O)c(=O)ccn2N2CN1C1(/C=C\COc3cc(F)c(F)c4c3[C@@H]2c2ccccc2SC4)CC1 (single isomer, unassigned) [Compound 108C] | > 0.1 µM | > 0.2 µM
7 | O=C1c2c(O)c(=O)ccn2N2CN1C[C@H]1C[C@@H]1COc1cc(F)c(F)c3c1[C@@H]2c1ccccc1SC3 (single isomer, unassigned) [Compound 127AA, (1a*S,11b*S,20a*S)-22,23-difluoro-17-hydroxy-1a,2,6,11b,20,20a-hexahydro-1H-5,4-(epiprop[1]en[1]yl[3]ylidene)-12,19-methanobenzo[6,7]thiepino[4,5-c]cyclopropa[k]pyrido[1,2-f][1]oxa[5,6,9]triazacyclotridecine-16,18-dione] | 0.0015 µM | > 0.2 µM
8 | O=C1c2c(O)c(=O)ccn2N2CN1CCCCOc1c(ccc(F)c1F)[C@@H]2c1ccccc1 (single isomer, unassigned) [Compound 115B, (18*S)-3,4-difluoro-12-hydroxy-18-phenyl-6,7,8,9-tetrahydro-18H-10,17-methanobenzo[b]pyrido[1,2-f][1]oxa[5,6,9]triazacyclotridecine-11,13-dione] | 0.0044 µM | > 0.2 µM
9 | O=C1c2c(O)c(=O)ccn2N2CN1CCCCOc1ccc(F)cc1[C@H]2c1cccc(F)c1 (single isomer, unassigned) [Compound 32A, (18*R)-2-fluoro-18-(3-fluorophenyl)-12-hydroxy-6,7,8,9-tetrahydro-18H-10,17-methanobenzo[b]pyrido[1,2-f][1]oxa[5,6,9]triazacyclotridecine-11,13-dione] | > 1 µM | > 2 µM
10 | Cc1c(F)ccc2c1OC/C=C\CN1CN([C@@H]2c2ccccc2)n2ccc(=O)c(O)c2C1=O (single isomer, unassigned) [Compound 133A, (18*R,Z)-3-fluoro-12-hydroxy-4-methyl-18-phenyl-6,9-dihydro-18H-10,17-methanobenzo[b]pyrido[1,2-f][1]oxa[5,6,9]triazacyclotridecine-11,13-dione] | 0.0041 µM | > 0.2 µM
11 | C/C1=C/COc2ccccc2[C@@H](c2ccccc2)N2CN(C1)C(=O)c1c(O)c(=O)ccn12 (single isomer, unassigned) [Compound 38A, (18*R,Z)-12-hydroxy-8-methyl-18-phenyl-6,9-dihydro-18H-10,17-methanobenzo[b]pyrido[1,2-f][1]oxa[5,6,9]triazacyclotridecine-11,13-dione] | > 1 µM | > 2 µM
12 | CC[C@@H]1/C=C/COc2cc(Cl)ccc2[C@H](c2ccccc2)N2CN1C(=O)c1c(O)c(=O)ccn12 (single isomer, unassigned) [Compound 97BA] | > 0.5 µM | > 1 µM
13 | O=C1c2c(O)c(=O)ccn2N2CN1CCCCCOc1cccc3c1C2c1ccccc1SC3 (centres unmarked) [Compound 48] | 0.032 µM | > 2 µM
14 | O=C1c2c(O)c(=O)ccn2N2CN1C/C=C\COc1c(F)cccc1[C@@H]2c1ccccc1 (single isomer, unassigned) [Compound 61B, (18*S,Z)-4-fluoro-12-hydroxy-18-phenyl-6,9-dihydro-18H-10,17-methanobenzo[b]pyrido[1,2-f][1]oxa[5,6,9]triazacyclotridecine-11,13-dione] | 0.155 µM | > 2 µM
15 | CC[C@H]1/C=C/COc2ccccc2[C@@H](c2ccccc2)N2CN1C(=O)c1c(O)c(=O)ccn12 [Compound 39BB, (9S,18R,E)-9-ethyl-12-hydroxy-18-phenyl-6,9-dihydro-18H-10,17-methanobenzo[b]pyrido[1,2-f][1]oxa[5,6,9]triazacyclotridecine-11,13-dione] | 0.007 µM | > 2 µM
16 | O=C1c2c(O)c(=O)ccn2N2CN1C[C@@H]1C[C@@H]1COc1cccc3c1[C@H]2c1ccccc1SC3 (single isomer, unassigned) [Compound 118AB, (1a*S,11b*S,20a*R)-17-hydroxy-1a,2,6,11b,17,17a,20,20a-octahydro-1H-5,4-(epiprop[1]en[1]yl[3]ylidene)-12,19-methanobenzo[6,7]thiepino[4,5-c]cyclopropa[k]pyrido[1,2-f][1]oxa[5,6,9]triazacyclotridecine-16,18-dione] | 0.01 µM | > 0.2 µM
17 | O=C1c2c(O)c(=O)ccn2N2CN1CCCCCOc1ccccc1C2c1ccccc1 (centres unmarked) [Compound 9, 15-hydroxy-2-phenyl-12,13,14,16-tetrahydro-11H-4-oxa-1(1,3)-pyrido[2,1-f][1,2,4]triazina-3(1,2)-benzenacyclononaphane-14,16-dione] | 0.453 µM | > 2 µM
18 | CC(C)[C@H]1/C=C/COc2c(ccc(F)c2F)[C@H](c2ccccc2)N2CN1C(=O)c1c(O)c(=O)ccn12 (single isomer, unassigned) [Compound 128BB] | 0.0039 µM | > 0.2 µM
19 | O=C1c2c(O)c(=O)ccn2N2CN1C/C=C\COc1cc(F)ccc1[C@@H]2c1ccccn1 (single isomer, unassigned) [Compound 71A, (18*R,*Z)-3-fluoro-12-hydroxy-18-(pyridin-2-yl)-6,9-dihydro-18H-10,17-methanobenzo[b]pyrido[1,2-f][1]oxa[5,6,9]triazacyclotridecine-11,13-dione] | 0.034 µM | > 0.2 µM
20 | O=C1c2c(O)c(=O)ccn2N2CN1C/C=C\COc1c(ccc(F)c1F)[C@@H]2c1ccccc1C1CC1 (single isomer, unassigned) [Compound 136B, (18*S,*Z)-18-(2-cyclopropylphenyl)-3,4-difluoro-12-hydroxy-6,9-dihydro-18H-10,17-methanobenzo[b]pyrido[1,2-f][1]oxa[5,6,9]triazacyclotridecine-11,13-dione] | > 0.1 µM | > 0.2 µM
21 | O=C1c2c(O)c(=O)ccn2N2CN1C/C=C\COc1ccccc1[C@H]2c1cccnc1 (single isomer, unassigned) [Compound 26A, (18*R,*Z)-12-hydroxy-18-(pyridin-3-yl)-6,9-dihydro-18H-10,17-methanobenzo[b]pyrido[1,2-f][1]oxa[5,6,9]triazacyclotridecine-11,13-dione] | 0.394 µM | > 2 µM
22 | O=C1c2c(O)c(=O)ccn2N2CN1C/C=C/CCc1cc(F)c(F)cc1[C@H]2c1ccccn1 (single isomer, unassigned) [Compound 58B, (16*S,E)-13,14-difluoro-4-hydroxy-16-(pyridin-2-yl)-7,10,11,16-tetrahydro-6,17-methanobenzo[k]pyrido[1,2-b][1,2,5]triazacyclotridecine-3,5-dione] | > 1 µM | > 2 µM
23 | O=C1CCN2CN(C(c3ccccc3)c3ccccc3CN1)n1ccc(=O)c(O)c1C2=O (centres unmarked) [Compound 18, 12-hydroxy-18-phenyl-5,8,9,18-tetrahydro-10,17-methanobenzo[k]pyrido[1,2-b][1,2,5,9]tetraazacyclotridecine-7,11,13(6H)-trione] | 7.91 µM | > 200 µM
24 | COC[C@@H]1N2C/C=C\COc3ccccc3[C@@H](c3ccccc3)N1n1ccc(=O)c(O)c1C2=O (single isomer, unassigned) [Compound 109A, (18*R,19*R,*Z)-12-hydroxy-19-(methoxymethyl)-18-phenyl-6,9-dihydro-18H-10,17-methanobenzo[b]pyrido[1,2-f][1]oxa[5,6,9]triazacyclotridecine-11,13-dione] | 0.0066 µM | > 0.2 µM
25 | O=C1c2c(O)c(=O)ccn2N2CN1C/C=C\COc1cccc3c1[C@@H]2c1ccccc1CC3 (single isomer, unassigned) [Compound 33B, (19b*S,Z)-4-hydroxy-7,10,15,19b-tetrahydro-14H-13,12-(epiprop[1]en[1]yl[3]ylidene)-6,20-methanobenzo[3,4]cyclohepta[1,2-c]pyrido[1,2-f][1]oxa[5,6,9]triazacyclotridecine-3,5-dione] | 0.015 µM | > 2 µM
